According to patent US6677350B1, “Beta-fluoroethyl thiourea compounds and use” (priority 1999, dated 2004):
Where two headings read alike, the source gives them in different places.

Tested on: M. tuberculosis H37Rv (ATCC 27294)
Assay: In vitro anti-tuberculosis screening, BACTEC 460 radiometric system, percent inhibition of growth
Type: cell-based, Mycobacterium tuberculosis
Details: Mtb H37Rv; for inhibition at 12.5 µg/mL: Mycobacterium tuberculosis

## COc1ccc(/C=C/C(=O)c2cccc(F)c2O)cc1 [Compound 23]
12.5 μg/mL, BACTEC 12B medium
  Activity % inhibition at 12.5 μg/mL (chalcones): 45%

## O=c1cc(-c2ccccc2)oc2ccc(-c3ccccc3-c3cc(=O)c4ccccc4o3)cc12 [Compound 156, 6-2′′′′-Biflavone]
12.5 μg/mL, BACTEC 12B medium
  Activity % Inhibition at 12.5 μg/mL (biflavonoids): 9%

## O=c1cc(-c2ccccc2)oc2ccc(Br)cc12 [Compound 123]
12.5 μg/mL
  anti-TB activity in words: weakly active or inactive
12.5 μg/mL, BACTEC 12B medium
  Activity % Inhibition at 12.5 μg/mL (flavones): 0%

## COc1c(-c2ccccc2)oc2ccc(Br)cc2c1=O [Compound 89]
12.5 μg/mL, BACTEC 12B medium
  Activity % Inhibition at 12.5 μg/mL (flavones): 44%

## O=c1cc(-c2ccc(O)c(-c3c(O)cc(O)c4c(=O)cc(-c5ccc(O)cc5)oc34)c2)oc2cc(O)cc(O)c12 [Compound 164, Amentoflavone]
12.5 μg/mL, BACTEC 12B medium, read-out: Activity % Inhibition at 12.5 μg/mL (biflavonoids)
  inhibition at 12.5 µg/mL: 0%

## CN(C)c1ccc(/C=C/C(=O)c2ccccn2)cc1 [Compound 62]
12.5 μg/mL, BACTEC 12B medium
  Activity % inhibition at 12.5 μg/mL (chalcone-like compounds): 16%

## O=C(/C=C/c1ccccc1)c1ccc(I)cc1O [Compound 45]
12.5 μg/mL, BACTEC 12B medium
  Activity % inhibition at 12.5 μg/mL (chalcones): 21%
Drug concentration 12.5 μg/mL
  inhibition of the growth of Mtb: 21%

## COc1ccc(-c2oc3ccccc3c(=O)c2Br)cc1 [Compound 96]
12.5 μg/mL, BACTEC 12B medium
  Activity % Inhibition at 12.5 μg/mL (flavones): 28%

## COc1ccc(C2CC(=O)c3ccc(I)cc3O2)cc1 (stereo not drawn) [Compound 149]
12.5 μg/mL, BACTEC 12B medium
  Activity % Inhibition at 12.5 μg/mL (flavanones): 0%

## O=C(/C=C/c1ccccc1)c1cccc(Br)c1O [Compound 32]
12.5 μg/mL, BACTEC 12B medium
  Activity % inhibition at 12.5 μg/mL (chalcones): 79%
Drug concentration 12.5 μg/mL
  inhibition of the growth of Mtb: 79%

## COc1ccc(-c2cc(=O)c3ccccc3o2)cc1 [Compound 93]
12.5 μg/mL, BACTEC 12B medium
  Activity % Inhibition at 12.5 μg/mL (flavones): 29%

## O=c1c(O)c(-c2ccccc2)oc2ccc(Br)cc12 [Compound 82]
12.5 μg/mL, BACTEC 12B medium
  Activity % Inhibition at 12.5 μg/mL (flavones): 58%

## O=C(/C=C/c1ccccc1I)c1ccccc1O [Compound 44, 2′-hydroxy-2-iodochalcone]
12.5 μg/mL, BACTEC 12B medium, read-out: Activity % inhibition at 12.5 μg/mL (chalcones)
  inhibition at 12.5 µg/mL: 41%
Drug concentration 12.5 μg/mL, read-out: inhibition of the growth of Mtb
  inhibition at 12.5 µg/mL: 41%

## O=c1cc(-c2ccc(O)cc2)oc2ccccc12 [Compound 104]
12.5 μg/mL, BACTEC 12B medium
  Activity % Inhibition at 12.5 μg/mL (flavones): 18%

## O=C1CC(c2ccccc2)Oc2ccc(Cl)cc21 (stereo not drawn) [Compound 138]
12.5 μg/mL, BACTEC 12B medium
  Activity % Inhibition at 12.5 μg/mL (flavanones): 30%

## O=c1c(O)c(-c2ccccc2)oc2ccc(I)cc12 [Compound 79]
12.5 μg/mL, BACTEC 12B medium
  Activity % Inhibition at 12.5 μg/mL (flavones): 64%

## O=C(C=Cc1ccccc1)c1ccc(Cl)cc1O [Compound 25]
12.5 μg/mL, BACTEC 12B medium
  Activity % inhibition at 12.5 μg/mL (chalcones): 89%
Drug concentration 12.5 μg/mL
  inhibition of the growth of Mtb: 89%

## COc1ccc(-c2oc3ccc(Cl)cc3c(=O)c2O)cc1 [Compound 87]
12.5 μg/mL
  anti-TB activity in words: did not change the activity
12.5 μg/mL, BACTEC 12B medium
  Activity % Inhibition at 12.5 μg/mL (flavones): 48%

## O=c1cc(-c2ccc(Cl)c([N+](=O)[O-])c2)oc2ccccc12 [Compound 95]
12.5 μg/mL, BACTEC 12B medium
  Activity % Inhibition at 12.5 μg/mL (flavones): 28%

## O=C1CC(c2ccc(O)c(O)c2)Oc2c1c(O)cc(OC1OC(CO)C(O)C(O)C1O)c2C1C(=O)c2c(O)cc(O)cc2OC1c1ccc(O)cc1 (stereo not drawn) [Compound 179, Xanthochymuside]
12.5 μg/mL, BACTEC 12B medium
  Activity % Inhibition at 12.5 μg/mL (biflavonoids): 0%

## COc1ccc(-c2oc3ccccc3c(=O)c2O)cc1 [Compound 88, 4′-methoxyflavonol]
12.5 μg/mL
  increase in activity compared to 92: 10%
12.5 μg/mL, BACTEC 12B medium, read-out: Activity % Inhibition at 12.5 μg/mL (flavones)
  inhibition at 12.5 µg/mL: 48%

## COc1ccc(-c2cc(=O)c3c(OC)cc(OC)c([C@@H]4C(=O)c5c(OC)cc(OC)cc5O[C@H]4c4ccc(OC)cc4)c3o2)cc1 [Compound 152, Volkensiflavone hexamethylether]
12.5 μg/mL, BACTEC 12B medium
  Activity % Inhibition at 12.5 μg/mL (biflavonoids): 95%
Drug concentration 12.5 μg/mL
  inhibition of the growth of Mtb: 95%

## O=C(C=Cc1ccccn1)c1ccccn1 [Compound 60]
12.5 μg/mL, BACTEC 12B medium
  Activity % inhibition at 12.5 μg/mL (chalcone-like compounds): 42%

## COc1ccc2c(=O)c(Br)c(-c3ccc(Cl)cc3)oc2c1 [Compound 103]
12.5 μg/mL, BACTEC 12B medium
  Activity % Inhibition at 12.5 μg/mL (flavones): 19%

## COc1ccc(C=CC(=O)c2ccc(Br)cc2O)cc1 [Compound 36]
12.5 μg/mL, BACTEC 12B medium
  Activity % inhibition at 12.5 μg/mL (chalcones): 25%
Drug concentration 12.5 μg/mL
  inhibition of the growth of Mtb: 25%

## COc1cc(OC)c2c(=O)cc(-c3ccc(O)cc3)oc2c1 [Compound 132]
12.5 μg/mL, BACTEC 12B medium
  Activity % Inhibition at 12.5 μg/mL (flavones): 0%

## O=c1c(O)c(-c2cccc(Br)c2)oc2ccccc12 [Compound 80]
12.5 μg/mL, BACTEC 12B medium
  Activity % Inhibition at 12.5 μg/mL (flavones): 60%

## O=C(C=Cc1ccc(Br)cc1)c1ccccc1O [Compound 33]
12.5 μg/mL, BACTEC 12B medium
  Activity % inhibition at 12.5 μg/mL (chalcones): 70%
Drug concentration 12.5 μg/mL
  inhibition of the growth of Mtb: 70%

## COc1ccc(/C=C/C(=O)c2cc(Br)ccc2O)cc1 [Compound 37]
12.5 μg/mL, BACTEC 12B medium
  Activity % inhibition at 12.5 μg/mL (chalcones): 23%
Drug concentration 12.5 μg/mL
  inhibition of the growth of Mtb: 23%

## COc1ccc(/C=C/C(=O)c2cc(C(=O)O)ccc2O)cc1 [Compound 16]
12.5 μg/mL, BACTEC 12B medium
  Activity % inhibition at 12.5 μg/mL (chalcones): 0%

## O=c1cc(-c2ccccc2I)oc2ccccc12 [Compound 100]
12.5 μg/mL
  anti-TB activity in words: weakly active or inactive
12.5 μg/mL, BACTEC 12B medium
  Activity % Inhibition at 12.5 μg/mL (flavones): 22%
Drug concentration 12.5 μg/mL
  inhibition of the growth of Mtb: 22%

## O=C(c1ccccc1)c1ccc2c(=O)c(C(=O)c3ccccc3)c(-c3ccccc3)oc2c1 [Compound 110]
12.5 μg/mL, BACTEC 12B medium
  Activity % Inhibition at 12.5 μg/mL (flavones): 12%
